The source of these data is patent publication US8357655B2, “Wound healing peptides and methods of use thereof” (Tufts University, priority 2008, dated 2013).

Common to all, as to assay type: cell-based
The test system of test [1] is human epidermal-derived keratinocytes. Nature of the test: in vitro wound healing assay, keratinocyte post-injury motility. Particulars: compared with HbEGF, growth factor known to be migration-inducing in keratinocytes (FIG. 2). As for the experimental part: Referring to FIG. 2, an in vitro wound healing assay was performed to compare the wound healing properties of two WHPs, SEQ ID NO: 3 and SEQ ID NO: 9, with a known potentiator of keratinocyte migration, heparin-binding EGF-like growth factor (HbEGF). In these experiments, confluent densities of human epidermal-derived keratinocytes were plated in vitro in defined media lacking WHPs or positive control substances. At time zero, all cultures are wounded mechanically and imaging of wounds was accomplished automatically using computer-assisted light microscope imaging. Cell cultures were injured mechanically by removing defined zones of living cells were then washed and test agents or control substances delivered. Cells recovering from injury were than quantifiably monitored using computer-assisted imaging and light microscopy. Post-injury motility was assessed using the migratory response of untreated injured cultures as a baseline for quantitative comparative analysis. Multiple experiments with multiple replicates are shown, standard deviation with error of the mean.

Another test deals with endothelial cells. Nature of the test: endothelial cell proliferation assay. Particulars: peptide at 1 nM; control cultures in 5% BCS DMEM (FIG. 5). As for the experimental part:
The WHPs provided herein induce endothelial cell proliferation. […] Endothelial cells were plated at subconfluent concentrations and allowed to attach, then new culture media was provided in the presence or absence of a WHP; control cultures were grown in 5% BCS DMEM.

The subject of test [2] is capillary endothelial cells. Nature of the test: in vitro wound healing assay, capillary endothelial cell migration. Particulars: one and two hours post-injury; WHP 0.5 nM to 0.2 mM in DMEM with 1% bovine calf serum; vs control cultures (FIG. 1). The protocol: In this assay, capillary endothelial cells were plated on tissue culture plastic and allowed to form a confluent monolayer. The monolayer was mechanically disrupted and non-adherent cells were removed, at which point the WHP was provided at a concentration within the range of sub-nanomolar (0.5 nM) to sub-millimolar (0.2 mM) in tissue culture media (DMEM with 1% bovine calf serum. Control cultures were incubated with serum alone, positive control test substances, e.g. basic fibroblast growth factor (bFGF viz, FGF2) and vascular endothelial growth factor (VEGF) (for capillary-derived endothelial cells); or heparin-binding epidermal-like growth factor (Hb-EGF) (for human skin derived keratinocytes). Other control cultures were incubated with either no peptide or a random peptide without wound healing or proliferative properties. The extent of endothelial cell migration in the WHP and control cultures was observationally determined at various time points following injury (e.g., thirty minutes, one hour, two hours, or more than two hours).

A short description of test [3]: in vitro injury model, dose dependence. Particulars: concentrations ranging from 1 to 1000 nM (FIG. 3). As for the experimental part:
Referring to FIG. 3, the WHPs provided herein act in dose-dependent manner. A WHP, SEQ ID NO: 9, was provided in an in vitro injury model at concentrations ranging from 1 to 1000 nM.

The subject of test [4] is capillary endothelial cells. Nature of the test: in vitro capillary morphogenesis (angiogenesis) assay. The following applies: cells embedded in ECM-derived three-dimensional matrix, incubated twenty hours (FIG. 4). As for the experimental part:
The WHPs provided herein are also useful in the promotion of capillary morphogenesis. […] Specifically, isolated capillary endothelial cells were embedded in an ECM-derived three-dimensional matrix that contained a WHP at a range of concentrations from the nanomolar (nM) to sub-millimolar (mM) (e.g., between 0.5 nM-0.2 mM) and incubated. […] In comparison, negative control cell populations (i.e., cells that were not exposed to a WHP but were exposed to serum containing media, which contains growth factors and other angiogenesis inducers) generally remained as individual cells during this timeframe at this population density.

Regarding “DINECEIGAPAGEETEVTVEGLEPG [SEQ ID NO: 3]”, in test [1], the keratinocyte post-injury motility result is “equal or superior to the growth factor”. Also, the endothelial cell proliferation result in the test on endothelial cells is given as “increase in endothelial cell proliferation”.
On to DINECELSANL [SEQ ID NO: 9], for which the “endothelial cell migration into the wound site” value in test [2] is on record as “substantially greater migration into the wound site”. Besides, the keratinocyte post-injury motility entry in test [1] is recorded as “equal or superior to the growth factor”. Further, the “wound healing activity, dose dependence” value in test [3] was “dose-dependent”. For the same substance, in the test on endothelial cells, the endothelial cell proliferation entry is recorded as “increase in endothelial cell proliferation”.
For the substance “bFGF: basic fibroblast growth factor, positive control growth factor”, the “formation of capillary tube like structures / in vitro angiogenesis” value in test [4] is reported as “able to promote in vitro angiogenesis to a lesser extent than populations treated with a WHP”.
